# Results: paper PMC11371747, “The role of l-leucovorin uptake and metabolism in the modulation of 5-fluorouracil efficacy and antifolate toxicity” (Frontiers in Pharmacology, 2024)
# Where two headings read alike, the source gives them in different places.
# Tests used:
# [1] = tested on: WiDr cells; assay: Growth inhibition, SRB assay, WiDr; format: cell-based; details: Homo sapiens, 72 h, read-out: IC50, 72 h drug exposure
# Experimental: (§1) Briefly, cells were seeded in triplicate in 96-well plates at their pre-established optimal density (CHO cells: 2,500 cells/100 μL; WiDr and HT29: 3,500 cells/100 μL; WiDr-LF/LV, LS174T: 5,000 cells/100 μL; CaCo2, CaCo2-LF/LV, H292, H28 and MSTO-211H: 6,000 cells/100 μL; H460, SW948 and SW1398: 7,000 cells/100 μL) and were allowed to attach for ∼ 24 h at 37°C in 5% CO2 and 100% humidified incubator. Thereafter, 100 μL of drug dilution without LV, or with 5 μM l-LV/5 μM d-LV/10 μM dL-LV (or any LV alone) were added. Cells were allowed to grow for 72 h at 37°C in 5% CO2 and 100% humidity. The t = 0 h control plate consisted of cells plated on the same day as the other cells, but after 24 h at 37°C in 5% CO2 and 100% humidity, only 100 μL medium was added and the cells were fixed immediately with 50% trichloroacetic acid (TCA) in milliQ water (25 μL per well) and put at 4°C for at least 1 h. Plates were washed five times with water and dried. Cells were stained with the SRB protein dye (0.4% (w/v) in 1% acetic acid. Excess dye was washed away four times with 1% acetic acid and plates were dried again. 200 μL of Tris (10 mM Tris (hydroxymethyl)-aminomethane in MQ) was added and optical density (OD) was read at 492 nm after mixing 2–3 min on a plate shaker.
# [2] = tested on: WiDr LF/LV cells; assay: Growth inhibition, SRB assay, WiDr LF/LV; format: cell-based, human; details: Homo sapiens, WiDr, 72 h, WiDr LF/LV, SRB, read-out: IC50, 72 h drug exposure
# Experimental: as §1
# [3] = tested on: CaCo2 cells; assay: Growth inhibition, SRB assay, CaCo2; format: cell-based; details: Homo sapiens, Caco-2, 72 h, read-out: IC50, 72 h drug exposure
# Experimental: as §1
# [4] = tested on: CaCo2 LF/LV cells; assay: Growth inhibition, SRB assay, CaCo2 LF/LV; format: cell-based; details: Homo sapiens, Caco-2, 72 h, read-out: IC50, 72 h drug exposure
# Experimental: as §1
# [5] = tested on: LS174T cells; assay: Growth inhibition, SRB assay, LS174T; format: cell-based; details: Homo sapiens, 72 h, read-out: IC50, 72 h drug exposure
# Experimental: as §1
# [6] = tested on: HT29 cells; assay: Growth inhibition, SRB assay, HT29; format: cell-based; details: Homo sapiens, HT-29, 72 h, read-out: IC50, 72 h drug exposure
# Experimental: as §1
# [7] = tested on: SW948 cells; assay: Growth inhibition, SRB assay, SW948; format: cell-based; details: Homo sapiens, SW948, 72 h, read-out: IC50, 72 h drug exposure
# Experimental: as §1
# [8] = tested on: SW1398 cells; assay: Growth inhibition, SRB assay, SW1398; format: cell-based; details: Homo sapiens, 72 h, read-out: IC50, 72 h drug exposure
# Experimental: as §1
# [9] = tested on: colon cancer cell lines; assay: Growth inhibition, SRB assay, panel of colon cancer cell lines; format: cell-based, human; details: Homo sapiens, read-out: IC50 range over colon cancer cell lines
# Experimental: as §1
# [10] = molecular target: T1, thymidylate synthase (TS) (Homo sapiens, UniProt P04818); assay: TS in situ inhibition assay (TSIA) in colon cancer cells; format: cell-based
# T1 construct: The principle of this assay is the measurement of TS enzymatic activity in intact cells; endogenous in cells; host or cells: colon cancer cell lines (WiDr, WiDr-LF, SW1398, LS174T and others)
# T1 sequence (P04818 2-313 limits assumed): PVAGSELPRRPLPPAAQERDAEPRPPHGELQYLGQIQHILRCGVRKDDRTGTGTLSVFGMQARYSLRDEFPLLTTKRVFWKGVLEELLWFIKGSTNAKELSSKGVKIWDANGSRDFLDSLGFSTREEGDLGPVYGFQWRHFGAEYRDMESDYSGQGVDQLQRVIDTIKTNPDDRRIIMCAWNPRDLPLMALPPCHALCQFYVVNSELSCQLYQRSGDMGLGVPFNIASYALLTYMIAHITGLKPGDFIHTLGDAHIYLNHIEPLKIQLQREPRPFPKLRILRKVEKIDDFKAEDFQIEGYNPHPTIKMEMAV
# Excerpt: The principle of this assay is the measurement of TS enzymatic activity in intact cells. Intact cells will readily internalize radioactively labelled [5-^3H]-deoxycytidine, which will be rapidly converted by deoxycytidine kinase (dCK) to [5-^3H]-dCMP and subsequently deaminated to [5-^3H]-dUMP, which will then serve as a substrate in the TS catalysed reaction to dTMP and ^3H2O; the quantity of ^3H2O formed over time is a measure of intracellular TS activity. […] This is because dCK has a higher, cell cycle independent activity than thymidine kinase 1, which is a cell cycle dependent enzyme. For this purpose, cancer cells were cultured in six wells plates at 2.5 × 10^5 cells/2 mL/well for 24 h. Thereafter, cells were exposed to drugs with or without the LV formulations at the indicated concentrations for 4 h. 2 h before the end of the incubation period [5-^3H]-2′-deoxycytidine (final concentration 1 µM) was added to the cells. […] In most cell lines we quantified dCK activity and dCK mRNA levels.
# [11] = tested on: H28 cells; assay: Growth inhibition, SRB assay, H28 (MPM); format: cell-based, human; details: H28, SRB, read-out: IC50, 72 h drug exposure
# Experimental: as §1
# [12] = tested on: MSTO-211H cells; assay: Growth inhibition, SRB assay, MSTO-211H (MPM); format: cell-based, human; details: SRB, read-out: IC50, 72 h drug exposure
# Experimental: as §1
# [13] = tested on: H460 cells; assay: Growth inhibition, SRB assay, H460 (NSCLC); format: cell-based, human; details: H460, SRB, read-out: IC50, 72 h drug exposure
# Experimental: as §1
# [14] = tested on: H292 cells; assay: Growth inhibition, SRB assay, H292 (NSCLC); format: cell-based, human; details: H292, SRB, read-out: IC50, 72 h drug exposure
# Experimental: as §1
# [15] = tested on: NSCLC and MPM cell lines; assay: Growth inhibition, SRB assay, NSCLC and MPM cell lines; format: cell-based, human; details: 5 µM l-LV, H28, MSTO-211H, H460, H292
# Experimental: as §1
# [16] = tested on: CHO/C5 cells; assay: Growth inhibition, SRB assay, CHO/C5 (RFC-deficient); format: cell-based, Chinese hamster
# Experimental: as §1
# [17] = tested on: CHO/C5-MOCK cells; assay: Growth inhibition, SRB assay, CHO/C5-MOCK (empty vector); format: cell-based, Chinese hamster
# Experimental: as §1
# [18] = tested on: CHO/C5-PCFT cells; assay: Growth inhibition, SRB assay, CHO/C5-PCFT (PCFT-transfected); format: cell-based, Chinese hamster
# Experimental: as §1
# [19] = tested on: CHO/C5-hRFC cells; assay: Growth inhibition, SRB assay, CHO/C5-hRFC (human RFC transfected); format: cell-based, Chinese hamster; details: CHO/C5-hRFC
# Experimental: as §1
# [20] = tested on: AA8 cells; assay: Growth inhibition, SRB assay, AA8 (parental CHO); format: cell-based, Chinese hamster; details: for IC50: AA8 parental CHO
# Experimental: as §1
# [21] = Cricetulus griseus, antifolate alone
structure (smiles),measurement,setting,value
"O=c1[nH]cc(F)c(=O)[nH]1 [5-FU, 5-fluorouracil]",IC50,[1]; 5-FU + 5 µM d-LV,4.21 ± 0.57 µM
same,IC50,[1]; 5-FU + 5 µM l-LV,1.95 ± 0.2 µM
same,IC50,[1]; 5-FU + 10 µM dl-LV,2.91 ± 1.06 µM
same,IC50,[1]; 5-FU alone,4.56 ± 0.34 µM
same,IC50,[2]; 5-FU + 5 µM d-LV,2.78 ± 0.34 µM
same,IC50,[2]; 5-FU + 5 µM l-LV,1.77 ± 0.15 µM
same,IC50,[2]; 5-FU + 10 µM dl-LV,1.75 ± 0.08 µM
same,IC50,[2]; 5-FU alone,1.83 ± 0.18 µM
same,IC50,[3]; 5-FU + 5 µM d-LV,3.04 ± 0.66 µM
same,IC50,[3]; 5-FU + 5 µM l-LV,3.04 ± 0.39 µM
same,IC50,[3]; 5-FU + 10 µM dl-LV,3.63 ± 0.38 µM
same,IC50,[3]; 5-FU alone,3.08 ± 0.27 µM
same,IC50,[4]; 5-FU + 5 µM d-LV,1.96 ± 0.62 µM
same,IC50,[4]; 5-FU + 5 µM l-LV,1.78 ± 0.18 µM
same,IC50,[4]; 5-FU + 10 µM dl-LV,1.78 ± 0.39 µM
same,IC50,[4]; 5-FU alone,2.05 ± 0.28 µM
same,IC50,[5]; 5-FU + 5 µM d-LV,10.5 ± 0.8 µM
same,IC50,[5]; 5-FU + 5 µM l-LV,8.11 ± 0.71 µM
same,IC50,[5]; 5-FU + 10 µM dl-LV,8.95 ± 0.72 µM
same,IC50,[5]; 5-FU alone,10.5 ± 0.82 µM
same,IC50,[6]; 5-FU + 5 µM d-LV,7.5 ± 0.5 µM
same,IC50,[6]; 5-FU + 5 µM l-LV,3.3 ± 0.2 µM
same,IC50,[6]; 5-FU + 10 µM dl-LV,3.8 ± 0.3 µM
same,IC50,[6]; 5-FU alone,7.9 ± 2.65 µM
same,IC50,[7]; 5-FU + 5 µM d-LV,3.85 ± 0.66 µM
same,IC50,[7]; 5-FU + 5 µM l-LV,2.63 ± 0.4 µM
same,IC50,[7]; 5-FU + 10 µM dl-LV,2.78 ± 0.29 µM
same,IC50,[7]; 5-FU alone,3.65 ± 0.41 µM
same,IC50,[8]; 5-FU + 5 µM d-LV,2.4 ± 0.68 µM
same,IC50,[8]; 5-FU + 5 µM l-LV,1.28 ± 0.18 µM
same,IC50,[8]; 5-FU + 10 µM dl-LV,1.44 ± 0.37 µM
same,IC50,[8]; 5-FU alone,2.99 ± 0.47 µM
same,IC50,[9]; 5-FU + 5 µM d-LV,2 to 10.5 µM
same,IC50,[9]; 5-FU + 5 µM l-LV,1.3 to 8.1 µM
same,IC50,[9]; 5-FU + 10 µM dl-LV,1.4 to 8.9 µM
same,IC50,[9]; 5-FU only,1.8 to 10.5 µM
same,IC50,"[10]; SW1398, 4 h, 5FU alone",4.14 ± 0.24 µM
same,IC50,"[10]; WiDr, 4 h, 5FU alone",3.76 ± 0.35 µM
same,IC50,"[10]; WiDr-LF, 4 h, 5FU alone",3.67 ± 0.33 µM
"Nc1nc2[nH]cc(CCc3ccc(C(=O)N[C@@H](CCC(=O)O)C(=O)O)cc3)c2c(=O)[nH]1 [PMX, pemetrexed]",IC50,[11]; antifolate + 5 µM l-LV,34.3 µM
same,IC50,"[11]; Homo sapiens, NCI-H28, 72 h, antifolate alone",0.28 ± 0.048 µM
same,IC50,"[12]; Homo sapiens, 72 h, antifolate alone",0.143 ± 0.014 µM
same,IC50,[12]; antifolate + 5 µM l-LV,21 µM
same,IC50,[13]; antifolate + 5 µM l-LV,52.7 µM
same,IC50,"[13]; Homo sapiens, NCI-H460, 72 h, antifolate alone",0.302 ± 0.012 µM
same,IC50,[14]; antifolate + 5 µM l-LV,17 µM
same,IC50,"[14]; Homo sapiens, NCI-H292, 72 h, antifolate alone",0.103 ± 0.012 µM
same,"l-LV-mediated increase in the IC50 values, range over cell lines",[15],144-211 fold
same,IC50,[16]; [21],3.1 µM
same,IC50,[16]; antifolate + 5 µM l-LV,59.6 µM
same,IC50,[17]; [21],42 µM
same,IC50,[17]; antifolate + 5 µM l-LV,> 100 µM
same,IC50,[18]; [21],10.6 µM
same,IC50,[18]; antifolate + 5 µM l-LV,49.2 µM
same,IC50,[19]; antifolate + 5 µM l-LV,29.3 µM
same,IC50,[19]; [21],0.046 µM
same,"Protection by l-LV, increase of the IC50 value","[20]; AA8 cells, 5 µM l-LV",94 fold
same,IC50,[20]; antifolate + 5 µM l-LV,3.5 µM
same,IC50,[20]; [21],0.037 µM
same,IC50,"[10]; WiDr, 4 h, antifolate alone",0.175 ± 0.075 µM
